Source: patent US5051403A (priority 1989, dated 1991)
pKi: −log10 of the molar value. “And” between values parts separate entries of the source, which are not always exact repeats. Identical values can stand only once. Bridge positions count the residues as written; N and C are the ends. Square brackets hold non-standard residues; d marks the D form. Ends that are not written are not given here. Peptide text beside a SMILES is read from it. * marks the point of attachment. Hyp = O=C(O)[C@@H]1C[C@@H](O)CN1; Acm = CC(=O)NC*

Target: OCT binding sites, elasmobranch electric organ synaptosomes (Diplobatis ommata, UniProt P56698)
Experiment: biochemical
Set-up: species or system Ommata dyscopyge (marine electric ray)
Details: pKi

Chain of OCT binding sites, elasmobranch electric organ synaptosomes (P56698 whole entry, looked up): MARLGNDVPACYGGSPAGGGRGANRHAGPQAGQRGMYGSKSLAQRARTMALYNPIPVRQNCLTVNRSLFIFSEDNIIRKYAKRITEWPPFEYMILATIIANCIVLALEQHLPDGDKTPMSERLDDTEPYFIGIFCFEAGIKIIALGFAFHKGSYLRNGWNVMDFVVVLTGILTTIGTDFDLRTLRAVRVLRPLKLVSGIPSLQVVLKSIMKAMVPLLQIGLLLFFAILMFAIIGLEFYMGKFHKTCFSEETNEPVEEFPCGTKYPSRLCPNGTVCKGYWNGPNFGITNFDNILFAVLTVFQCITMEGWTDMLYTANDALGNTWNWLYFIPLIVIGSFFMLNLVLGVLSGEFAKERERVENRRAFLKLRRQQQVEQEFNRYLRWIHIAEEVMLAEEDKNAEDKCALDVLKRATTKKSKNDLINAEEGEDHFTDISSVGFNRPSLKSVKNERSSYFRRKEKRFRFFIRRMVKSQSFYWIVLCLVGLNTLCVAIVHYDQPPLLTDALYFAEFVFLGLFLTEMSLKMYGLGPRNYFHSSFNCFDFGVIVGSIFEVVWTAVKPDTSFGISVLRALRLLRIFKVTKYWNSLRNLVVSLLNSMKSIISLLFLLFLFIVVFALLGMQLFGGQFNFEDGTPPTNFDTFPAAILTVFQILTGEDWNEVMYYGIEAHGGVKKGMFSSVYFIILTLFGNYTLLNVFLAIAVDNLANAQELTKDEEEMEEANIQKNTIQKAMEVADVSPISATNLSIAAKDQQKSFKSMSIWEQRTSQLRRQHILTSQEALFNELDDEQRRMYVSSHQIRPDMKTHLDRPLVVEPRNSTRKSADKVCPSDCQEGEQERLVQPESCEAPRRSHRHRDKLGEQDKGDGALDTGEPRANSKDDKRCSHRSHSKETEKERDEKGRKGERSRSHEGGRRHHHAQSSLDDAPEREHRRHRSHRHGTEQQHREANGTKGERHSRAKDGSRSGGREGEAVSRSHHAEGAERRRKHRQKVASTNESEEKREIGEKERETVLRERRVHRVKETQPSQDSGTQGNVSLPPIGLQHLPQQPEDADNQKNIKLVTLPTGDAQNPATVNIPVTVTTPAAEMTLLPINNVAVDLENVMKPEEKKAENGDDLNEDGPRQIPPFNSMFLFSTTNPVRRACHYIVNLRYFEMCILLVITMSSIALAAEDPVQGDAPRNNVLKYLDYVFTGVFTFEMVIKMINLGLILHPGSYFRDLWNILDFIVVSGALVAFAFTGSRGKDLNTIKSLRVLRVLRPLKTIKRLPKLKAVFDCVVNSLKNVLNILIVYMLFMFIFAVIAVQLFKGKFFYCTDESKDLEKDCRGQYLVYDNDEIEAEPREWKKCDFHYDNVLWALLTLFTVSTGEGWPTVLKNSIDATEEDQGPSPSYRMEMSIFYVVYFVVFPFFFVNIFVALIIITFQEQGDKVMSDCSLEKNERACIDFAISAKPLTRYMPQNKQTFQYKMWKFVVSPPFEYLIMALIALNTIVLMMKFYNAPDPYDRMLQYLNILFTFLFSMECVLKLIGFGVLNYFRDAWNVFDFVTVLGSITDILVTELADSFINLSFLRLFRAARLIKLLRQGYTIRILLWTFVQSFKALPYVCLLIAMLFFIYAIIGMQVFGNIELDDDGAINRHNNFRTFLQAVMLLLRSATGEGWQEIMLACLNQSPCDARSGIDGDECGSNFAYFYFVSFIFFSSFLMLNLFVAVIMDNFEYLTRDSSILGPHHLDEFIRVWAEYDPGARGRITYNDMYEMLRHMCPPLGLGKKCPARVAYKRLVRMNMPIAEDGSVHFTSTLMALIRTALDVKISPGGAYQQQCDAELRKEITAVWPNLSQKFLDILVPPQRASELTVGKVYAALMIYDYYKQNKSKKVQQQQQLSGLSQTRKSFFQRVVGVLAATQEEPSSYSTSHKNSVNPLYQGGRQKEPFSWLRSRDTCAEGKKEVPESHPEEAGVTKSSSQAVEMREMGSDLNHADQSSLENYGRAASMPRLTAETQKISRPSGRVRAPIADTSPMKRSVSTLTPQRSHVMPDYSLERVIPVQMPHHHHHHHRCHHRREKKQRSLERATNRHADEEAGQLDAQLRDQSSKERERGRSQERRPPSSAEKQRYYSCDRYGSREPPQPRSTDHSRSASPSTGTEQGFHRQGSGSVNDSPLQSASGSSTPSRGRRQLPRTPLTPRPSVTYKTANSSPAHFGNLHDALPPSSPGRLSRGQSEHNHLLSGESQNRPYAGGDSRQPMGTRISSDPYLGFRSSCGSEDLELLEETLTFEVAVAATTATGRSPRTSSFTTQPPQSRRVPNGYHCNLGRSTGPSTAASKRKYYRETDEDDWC

Compound: C[C@@H]1NC(=O)[C@H](C)NC(=O)[C@H](CCCCN)NC(=O)[C@H](CO)NC(=O)CNC(=O)[C@H](CCCCN)NC(=O)[C@H](CO)NC(=O)[C@H](CCCCN)NC(=O)[C@@H](N)CSSC[C@@H](C(N)=O)NC(=O)[C@H](CCCCN)NC(=O)CNC(=O)[C@H](CO)NC(=O)[C@H](CCCNC(=N)N)NC1=O [MVIIA 176] (H-CKSKGSKAARSGKC-NH2; disulfide 1-14)
- pKi: 5.74

Compound: CSCC[C@@H]1NC(=O)[C@H](CC(C)C)NC(=O)[C@H](CCCNC(=N)N)NC(=O)[C@H](CO)NC(=O)[C@H](CSCNC(C)=O)NC(=O)[C@H](CCCCN)NC(=O)[C@H](C)NC(=O)CNC(=O)[C@H](CCCCN)NC(=O)CNC(=O)[C@H](CCCCN)NC(=O)[C@@H](N)CSSC[C@@H](C(N)=O)NC(=O)[C@H](CSCNC(C)=O)NC(=O)[C@H](CC(=O)O)NC(=O)[C@H](Cc2ccc(O)cc2)NC1=O [MVIIA 163]
- pKi: 3.66

Compound: C[C@@H]1NC(=O)CNC(=O)[C@H](CCCCN)NC(=O)CNC(=O)[C@H](CCCCN)NC(=O)[C@@H](N)CSSC[C@@H](C(N)=O)NC(=O)[C@H](CCCCN)NC(=O)CNC(=O)[C@H](CO)NC(=O)[C@H](CCCNC(=N)N)NC(=O)[C@H](C)NC(=O)[C@H](C)NC(=O)[C@H](CCCCN)NC1=O [MVIIA 175] (H-CKGKGAKAARSGKC-NH2; disulfide 1-14)
- pKi: 5.44

Compound: C[C@@H]1NC(=O)CNC(=O)[C@H](CCCCN)NC(=O)CNC(=O)[C@H](CCCCN)NC(=O)[C@@H](N)CSSC[C@@H](C(=O)N[C@@H](CO)C(=O)N[C@@H](CCCNC(=N)N)C(N)=O)NC(=O)[C@H](CCCCN)NC1=O [MVIIA 170]
- pKi: > 6.00 and 6.55

Compound: C[C@@H]1NC(=O)[C@H](C)NC(=O)[C@H](CO)NC(=O)[C@H](CO)NC(=O)CNC(=O)[C@@H]2C[C@@H](O)CN2C(=O)[C@H](CO)NC(=O)[C@H](CCCCN)NC(=O)[C@@H](N)CSSC[C@@H](C(=O)N[C@@H](Cc2ccc(O)cc2)C(N)=O)NC(=O)[C@H](CCCNC(=N)N)NC(=O)[C@H](CCCCN)NC(=O)[C@H]([C@@H](C)O)NC(=O)[C@H](Cc2ccc(O)cc2)NC(=O)[C@@H]2C[C@@H](O)CN2C(=O)[C@H](CC(N)=O)NC1=O [GVIA 180] (H-CKS[Hyp]GSSAAN[Hyp]YTKRCY-NH2; disulfide 1-16)
- pKi: 3.91

Compound: CSCC[C@@H]1NC(=O)[C@H](CC(C)C)NC(=O)[C@H](CCCNC(=N)N)NC(=O)[C@H](CO)NC(=O)[C@H](C)NC(=O)[C@H](CCCCN)NC(=O)[C@H](C)NC(=O)CNC(=O)[C@H](CCCCN)NC(=O)CNC(=O)[C@H](CCCCN)NC(=O)[C@@H](N)CSSC[C@@H](C(N)=O)NC(=O)[C@H](C)NC(=O)[C@H](CC(=O)O)NC(=O)[C@H](Cc2ccc(O)cc2)NC1=O [MVIIA 171] (H-CKGKGAKASRLMYDAC-NH2; disulfide 1-16)
- pKi: 5.33

Compound: AKGKGAKASR-NH2 [MVIIA 174]
- pKi: > 6.00 and 6.28

Compound: CC(=O)NCSC[C@@H]1NC(=O)[C@H](CCCCN)NC(=O)[C@H](C)NC(=O)CNC(=O)[C@H](CCCCN)NC(=O)CNC(=O)[C@H](CCCCN)NC(=O)[C@@H](N)CSSC[C@@H](C(N)=O)NC(=O)[C@H](CCCCN)NC(=O)CNC(=O)[C@H](CO)NC(=O)[C@H](CCCNC(=N)N)NC(=O)[C@H](CSCNC(C)=O)NC1=O [MVIIA 162] (H-CKGKGAKC(Acm)C(Acm)RSGKC-NH2; disulfide 1-14)
- pKi: > 6.00 and 6.77

Compound: CSCC[C@@H]1NC(=O)[C@H](CC(C)C)NC(=O)[C@H](CCCNC(=N)N)NC(=O)[C@H](CO)NC(=O)[C@@H](N)CSSC[C@@H](C(N)=O)NC(=O)[C@H](CO)NC(=O)CNC(=O)[C@H]([C@@H](C)O)NC(=O)[C@H](CSCNC(C)=O)NC(=O)[C@H](CSCNC(C)=O)NC(=O)[C@H](CC(=O)O)NC(=O)[C@H](Cc2ccc(O)cc2)NC1=O [MVIIA 161] (H-CSRLMYDC(Acm)C(Acm)TGSC-NH2; disulfide 1-13)
- pKi: < 3.00

Compound: CC(=O)NCSC[C@@H]1NC(=O)[C@H](CO)NC(=O)CNC(=O)[C@H]([C@@H](C)O)NC(=O)[C@H](CSCNC(C)=O)NC(=O)[C@@H](N)CSSC[C@@H](C(N)=O)NC(=O)[C@H](CCCCN)NC(=O)CNC(=O)[C@H](CO)NC(=O)[C@H](CCCNC(=N)N)NC1=O [MVIIA 160]
- pKi: 3.92

Compound: CSCC[C@@H]1NC(=O)[C@H](CC(C)C)NC(=O)[C@H](CCCNC(=N)N)NC(=O)[C@H](CO)NC(=O)[C@@H]2CSSC[C@H](NC(=O)[C@H](CC(=O)O)NC(=O)[C@H](Cc3ccc(O)cc3)NC1=O)C(=O)N[C@H](C(N)=O)CSSC[C@H](N)C(=O)N[C@@H](CCCCN)C(=O)NCC(=O)N[C@@H](CCCCN)C(=O)NCC(=O)N[C@@H](C)C(=O)N[C@@H](CCCCN)C(=O)N2 [MVIIA 172]
- pKi: 4.68

Compound: C[C@@H]1NC(=O)[C@H](CO)NC(=O)[C@H](CO)NC(=O)CNC(=O)[C@@H]2C[C@@H](O)CN2C(=O)[C@H](CO)NC(=O)[C@H](CCCCN)NC(=O)[C@@H](N)CSSC[C@@H](C(N)=O)NC(=O)[C@H](C)NC(=O)[C@H](CC(N)=O)NC(=O)[C@H](Cc2ccc(O)cc2)NC(=O)[C@H](CO)NC(=O)[C@H]([C@@H](C)O)NC(=O)[C@@H]2C[C@@H](O)CN2C(=O)[C@H](CO)NC1=O [GVIA 177] (H-CKS[Hyp]GSSAS[Hyp]TSYNAC-NH2; disulfide 1-16)
- pKi: < 3.00
